Measured values from patent US10590140B2, “Tetrahydropyrimidodiazepine and dihydropyridodiazepine compounds for treating pain and pain related conditions” (ESTEVE PHARMACEUTICALS, S.A., priority 2016, dated 2020).

What follows are compounds tested against human α2δ-1 subunit of Cav2.2 calcium channel (Homo sapiens (Human), UniProt P54289) (assay: Binding assay to human α2δ-1 subunit of Cav2.2 calcium channel ([3H]-Gabapentin)). Settings: binding to α2δ-1, [3H]-Gabapentin; read-out: Ki (nM) α2δ-1.
Chain of human α2δ-1 subunit of Cav2.2 calcium channel (P54289 25-1103): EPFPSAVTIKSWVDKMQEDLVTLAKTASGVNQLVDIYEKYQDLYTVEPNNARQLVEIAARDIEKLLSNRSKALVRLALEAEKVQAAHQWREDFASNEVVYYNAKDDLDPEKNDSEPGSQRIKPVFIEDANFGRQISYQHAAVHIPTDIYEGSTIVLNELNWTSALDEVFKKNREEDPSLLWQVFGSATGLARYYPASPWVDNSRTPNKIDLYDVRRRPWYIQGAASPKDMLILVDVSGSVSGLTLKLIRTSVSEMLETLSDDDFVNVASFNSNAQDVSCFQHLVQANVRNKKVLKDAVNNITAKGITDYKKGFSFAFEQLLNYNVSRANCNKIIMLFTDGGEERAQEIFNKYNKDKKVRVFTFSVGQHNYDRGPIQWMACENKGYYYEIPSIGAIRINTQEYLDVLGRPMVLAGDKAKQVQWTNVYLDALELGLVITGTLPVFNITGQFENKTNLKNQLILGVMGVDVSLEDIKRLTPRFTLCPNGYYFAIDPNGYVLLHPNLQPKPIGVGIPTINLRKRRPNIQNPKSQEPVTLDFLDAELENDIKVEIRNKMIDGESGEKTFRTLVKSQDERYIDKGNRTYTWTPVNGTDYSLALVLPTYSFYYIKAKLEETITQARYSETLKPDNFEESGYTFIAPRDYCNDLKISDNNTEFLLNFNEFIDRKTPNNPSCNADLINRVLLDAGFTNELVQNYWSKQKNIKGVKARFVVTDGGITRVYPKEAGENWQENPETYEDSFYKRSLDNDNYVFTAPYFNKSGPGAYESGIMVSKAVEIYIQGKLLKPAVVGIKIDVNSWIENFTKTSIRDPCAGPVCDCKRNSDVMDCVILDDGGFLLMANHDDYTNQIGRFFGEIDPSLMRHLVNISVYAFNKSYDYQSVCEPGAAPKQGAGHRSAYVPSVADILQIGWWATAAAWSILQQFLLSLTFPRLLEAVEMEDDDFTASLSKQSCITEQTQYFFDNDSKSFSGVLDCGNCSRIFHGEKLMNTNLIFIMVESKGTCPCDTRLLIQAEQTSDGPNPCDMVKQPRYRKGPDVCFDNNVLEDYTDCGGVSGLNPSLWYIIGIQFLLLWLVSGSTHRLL
Outline: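 [3H]-gabapentin binding, 60 min at 27° C; nonspecific binding defined with 10 μM pregabalin. Terminated by filtration on PEI-presoaked GF/C filters, ice-cold 50 mM Tris-HCl pH 7.4 washes, then scintillation counting.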

SMILES	Ki [nM]
CSc1ncc2c(n1)N(C)CCN(c1cccc(CO[C@@H](CCN(C)C(=O)OC(C)(C)C)c3ccccc3)c1)C2=O [Example 11, tert-butyl (S)-methyl(3-((3-(9-methyl-2-(methylthio)-5-oxo-5,7,8,9-tetrahydro-6H-pyrimido[4,5-e][1,4]diazepin-6-yl)benzyl)oxy)-3-phenylpropyl) carbamate]	> 3000
CCNc1ncc2c(n1)N(C)CCN(c1cccc(Cn3cc(CN(C)Cc4ccccc4)nn3)c1)C2=O [Example 250, 6-(3-((4-((benzyl (methyl)amino)methyl)-1H-1,2,3-triazol-1-yl)methyl)phenyl)-2-(ethylamino)-9-methyl-6,7,8,9-tetrahydro-5H-pyrimido[4,5-e][1,4]diazepin-5-one]	500 to 3000
CCNc1ncc2c(n1)N(C)CCN(c1cccc(COC(C)CCN(C)C(=O)OC(C)(C)C)c1)C2=O (stereo not shown) [Example 127, tert-butyl (3-((3-(2-(ethylamino)-9-methyl-5-oxo-5,7,8,9-tetrahydro-6H-pyrimido[4,5-e][1,4]diazepin-6-yl)benzyl)oxy)butyl) (methyl)carbamate]	> 3000
CCNc1ncc2c(n1)N(C)CCN(c1cccc(CO[C@@H](CCN(C)C(=O)OC(C)(C)C)c3cccs3)c1)C2=O [Example 85, tert-butyl (S)-(3-((3-(2-(ethylamino)-9-methyl-5-oxo-5,7,8,9-tetrahydro-6H-pyrimido[4,5-e][1,4]diazepin-6-yl)benzyl)oxy)-3-(thiophen-2-yl)propyl)(methyl) carbamate]	> 3000
CCNc1ncc2c(n1)N(C)CCN(Cc1ccccc1COC(CNC)c1ccccc1)C2=O (stereo not shown) [Example 412, 2-(ethylamino)-9-methyl-6-(2-((2-(methylamino)-1-phenylethoxy)methyl)benzyl)-6,7,8,9-tetrahydro-5H-pyrimido[4,5-e][1,4]diazepin-5-one]	> 3000
CNCC[C@H](Oc1ccc(CN2CCN(C)c3nc(OC)ncc3C2=O)c(F)c1)c1cccs1 [Example 401, (S)-6-(2-fluoro-4-(3-(methylamino)-1-(thiophen-2-yl)propoxy)benzyl)-2-methoxy-9-methyl-6,7,8,9-tetrahydro-5H-pyrimido[4,5-e][1,4]diazepin-5-one]	< 100
CCNc1ncc2c(n1)N(C)CCN(c1cccc(-n3cc(CN4CCC(c5cccc(O)c5)(N(C)C)CC4)cn3)c1)C2=O [Example 295, 6-(3-(4-((4-(dimethylamino)-4-(3-hydroxyphenyl)piperidin-1-yl)methyl)-1H-pyrazol-1-yl)phenyl)-2-(ethylamino)-9-methyl-6,7,8,9-tetrahydro-5H-pyrimido[4,5-e] [1,4]diazepin-5-one]	100 to 500
CCNc1ncc2c(n1)N(C)CCN(c1cccc(CCCNC)c1)C2=O [Example 171, 2-(ethylamino)-9-methyl-6-(3-(3-(methylamino)propyl)phenyl)-6,7,8,9-tetrahydro-5H-pyrimido[4,5-e][1,4]diazepin-5-one]	100 to 500
CSc1ncc2c(n1)N(C)CCN(c1cccc(OC(CCN(C)C(=O)OC(C)(C)C)c3ccccn3)c1)C2=O (stereo not shown) [Example 52, tert-butyl methyl(3-(3-(9-methyl-2-(methylthio)-5-oxo-5,7,8,9-tetrahydro-6H-pyrimido[4,5-e][1,4]diazepin-6-yl)phenoxy)-3-(pyridin-2-yl)propyl) carbamate]	> 3000
CCNc1ncc2c(n1)N(C)CCN(c1cccc(OC(CN(C)C(=O)OC(C)(C)C)c3ccccc3)c1)C2=O (stereo not shown) [Example 72, tert-butyl (2-(3-(2-(ethylamino)-9-methyl-5-oxo-5,7,8,9-tetrahydro-6H-pyrimido[4,5-e][1,4]diazepin-6-yl)phenoxy)-2-phenylethyl)(methyl) carbamate]	> 3000
Cc1nnc(-c2cccc(N3CCN(C)c4nc(N)ncc4C3=O)c2)o1 [Example 101, 2-amino-9-methyl-6-(3-(5-methyl-1,3,4-oxadiazol-2-yl)phenyl)-6,7,8,9-tetrahydro-5H-pyrimido[4,5-e][1,4]diazepin-5-one]	500 to 3000
CCNc1ncc2c(n1)N(C)CCN(c1cccc(-n3cc(CN4CCc5ccccc5C4)nn3)c1)C2=O [Example 282, 6-(3-(4-((3,4-dihydroisoquinolin-2(1H)-yl)methyl)-1H-1,2,3-triazol-1-yl)phenyl)-2-(ethylamino)-9-methyl-6,7,8,9-tetrahydro-5H-pyrimido[4,5-e] [1,4]diazepin-5-one]	500 to 3000
CSc1ncc2c(n1)N(C)CCN(c1cccc(OC(CCN(C)C(=O)OC(C)(C)C)c3ccccc3)c1)C2=O (stereo not shown) [Example 1, tert-Butyl methyl(3-(3-(9-methyl-2-(methylthio)-5-oxo-5,7,8,9-tetrahydro-6H-pyrimido[4,5-e][1,4]diazepin-6-yl)phenoxy)-3-phenylpropyl) carbamate]	> 3000
CN(CCC(Oc1cccc(N2CCN(C)c3nc(N(C)C)ncc3C2=O)c1)c1cccs1)C(=O)OCC[Si](C)(C)C (stereo not shown) [Example 133, 2-(trimethylsilyl)ethyl (3-(3-(2-(dimethylamino)-9-methyl-5-oxo-5,7,8,9-tetrahydro-6H-pyrimido[4,5-e][1,4]diazepin-6-yl)phenoxy)-3-(thiophen-2-yl)propyl)(methyl) carbamate]	> 3000
CCNc1cc2c(cn1)C(=O)N(c1cccc(-c3nnc(C)n3CC)c1)CCN2C [Example 55, 4-(3-(4-ethyl-5-methyl-4H-1,2,4-triazol-3-yl)phenyl)-8-(ethylamino)-1-methyl-1,2,3,4-tetrahydro-5H-pyrido[4,3-e][1,4]diazepin-5-one]	500 to 3000
CCNc1ncc2c(n1)N(C)CCN(c1cccc(OC3CCN(Cc4ccccc4)C3)c1)C2=O (stereo not shown) [Example 266, 6-(3-((1-benzylpyrrolidin-3-yl)oxy)phenyl)-2-(ethylamino)-9-methyl-6,7,8,9-tetrahydro-5H-pyrimido[4,5-e][1,4]diazepin-5-one]	100 to 500
CCNc1ncc2c(n1)N(C)CCN(Cc1ccc(OC(CN(C)C(=O)OC(C)(C)C)c3ccccc3)cc1)C2=O (stereo not shown) [Example 136, tert-butyl (2-(4-((2-(ethylamino)-9-methyl-5-oxo-5,7,8,9-tetrahydro-6H-pyrimido[4,5-e][1,4]diazepin-6-yl)methyl)phenoxy)-2-phenylethyl)(methyl) carbamate]	> 3000
CSc1ncc2c(n1)N(C)CCN(c1cccc(OC(CN(C)C(=O)OC(C)(C)C)C(C)C)c1)C2=O (stereo not shown) [Example 7, tert-butyl methyl(3-methyl-2-(3-(9-methyl-2-(methylthio)-5-oxo-5,7,8,9-tetrahydro-6H-pyrimido[4,5-e][1,4]diazepin-6-yl)phenoxy)butyl) carbamate]	> 3000
CNCC(OCc1ccccc1CN1CCN(C)c2nc(SC)ncc2C1=O)c1ccccc1 (stereo not shown) [Example 373, 9-methyl-6-(2-((2-(methylamino)-1-phenylethoxy)methyl)benzyl)-2-(methylthio)-6,7,8,9-tetrahydro-5H-pyrimido[4,5-e][1,4]diazepin-5-one]	> 3000
CCNc1ncc2c(n1)N(C)CCN(c1cccc(OC(CN(C)CCc3ccccc3)C(C)C)c1)C2=O (stereo not shown) [Example 268, 2-(ethylamino)-9-methyl-6-(3-((3-methyl-1-(methyl(phenethyl)amino)butan-2-yl)oxy)phenyl)-6,7,8,9-tetrahydro-5H-pyrimido[4,5-e][1,4]diazepin-5-one]	500 to 3000
CSc1ncc2c(n1)N(C)CCN(c1cccc(CCN(C)C(=O)OC(C)(C)C)c1)C2=O [Example 24, tert-butyl methyl(3-(9-methyl-2-(methylthio)-5-oxo-5,7,8,9-tetrahydro-6H-pyrimido[4,5-e][1,4]diazepin-6-yl)phenethyl) carbamate]	> 3000
CCNc1cc2c(cn1)C(=O)N(c1cccc(OC(CCN(C)C(=O)OCC[Si](C)(C)C)c3cccs3)c1)CCN2C (stereo not shown) [Example 58, 2-(trimethyl-silyl)ethyl (3-(3-(8-(ethylamino)-1-methyl-5-oxo-1,2,3,5-tetrahydro-4H-pyrido[4,3-e] [1,4]diazepin-4-yl)phenoxy)-3-(thiophen-2-yl)propyl)(methyl) carbamate]	> 3000
CCNc1ncc2c(n1)N(C)CCN(c1cccc(CN3CCC(c4ccccc4)(N(C)C)CC3)c1)C2=O [Example 292, 6-(3-((4-(dimethylamino)-4-phenylpiperidin-1-yl)methyl)phenyl)-2-(ethylamino)-9-methyl-6,7,8,9-tetrahydro-5H-pyrimido[4,5-e] [1,4]diazepin-5-one]	500 to 3000
CSc1ncc2c(n1)N(C)CCN(c1cccc(-n3cc(CNC(=O)OC(C)(C)C)nn3)c1)C2=O [Example 40, tert-butyl ((1-(3-(9-methyl-2-(methylthio)-5-oxo-5,7,8,9-tetrahydro-6H-pyrimido[4,5-e][1,4]diazepin-6-yl)phenyl)-1H-1,2,3-triazol-4-yl)methyl) carbamate]	> 3000
CSc1ncc2c(n1)N(C)CCN(c1cccc(C#N)c1)C2=O [Example 33, 3-(9-methyl-2-(methylthio)-5-oxo-5,7,8,9-tetrahydro-6H-pyrimido[4,5-e][1,4]diazepin-6-yl)benzonitrile]	> 3000
CCNc1ncc2c(n1)N(C)CCN(c1cccc(OC)c1)C2=O [Example 109, 2-(ethylamino)-6-(3-methoxyphenyl)-9-methyl-6,7,8,9-tetrahydro-5H-pyrimido[4,5-e][1,4]diazepin-5-one]	500 to 3000
CNCC(OCc1ccccc1N1CCN(C)c2nc(SC)ncc2C1=O)c1ccccc1 (stereo not shown) [Example 320, 9-methyl-6-(2-((2-(methylamino)-1-phenylethoxy)methyl)phenyl)-2-(methylthio)-6,7,8,9-tetrahydro-5H-pyrimido[4,5-e][1,4]diazepin-5-one]	> 3000
CNCC(Oc1ccccc1CN1CCN(C)c2nc(SC)ncc2C1=O)c1ccccc1 (stereo not shown) [Example 371, 9-methyl-6-(2-(2-(methylamino)-1-phenylethoxy)benzyl)-2-(methylthio)-6,7,8,9-tetrahydro-5H-pyrimido[4,5-e][1,4]diazepin-5-one]	> 3000
